Source: patent US8536168B2 (Novartis AG, priority 2007, dated 2013)
Read-outs that look alike come from different tables or passages of the source.

Legend:
Gli-luciferase activity = assay: Reporter gene assay (RGA) in TMHh12 cells, antagonism of Gli-luciferase activity in the presence of a Smo agonist; format: cell-based
Protocol: Activity of the compounds was evaluated using a reporter gene assay (RGA) in TMHh12 cells.

[1] = target: mouse Smoothened receptor (Mus musculus, UniProt P56726); assay: Smo binding assay, displacement of radio-labeled smoothened agonist, filter binding format (mouse); details: displacement of small molecule agonist of Smoothened, read-out: Mouse Smo bdg., IC50
Excerpt: A Smo binding assay was developed using radio-labeled smoothened agonist for compound competition.

[2] = target: human Smoothened receptor (Homo sapiens, UniProt Q99835); assay: Smo binding assay, displacement of radio-labeled smoothened agonist, filter binding format (human); details: displacement of small molecule agonist of Smoothened, read-out: Human Smo bdg., IC50
Excerpt: A Smo binding assay was developed using radio-labeled smoothened agonist for compound competition. Table 9 lists the IC50 for displacement of a small molecule agonist of Smoothened determined in a filter binding format for the mouse and human Smoothened receptor.

[3] = 25 nM small molecule Smo agonist, read-out: RGA (25 nM Smo agonist) IC50
[4] = read-out: RGA (1 nM Smo agonist) IC50, 1 nM small molecule Smo agonist

Sequence of mouse Smoothened receptor (P56726 33-793): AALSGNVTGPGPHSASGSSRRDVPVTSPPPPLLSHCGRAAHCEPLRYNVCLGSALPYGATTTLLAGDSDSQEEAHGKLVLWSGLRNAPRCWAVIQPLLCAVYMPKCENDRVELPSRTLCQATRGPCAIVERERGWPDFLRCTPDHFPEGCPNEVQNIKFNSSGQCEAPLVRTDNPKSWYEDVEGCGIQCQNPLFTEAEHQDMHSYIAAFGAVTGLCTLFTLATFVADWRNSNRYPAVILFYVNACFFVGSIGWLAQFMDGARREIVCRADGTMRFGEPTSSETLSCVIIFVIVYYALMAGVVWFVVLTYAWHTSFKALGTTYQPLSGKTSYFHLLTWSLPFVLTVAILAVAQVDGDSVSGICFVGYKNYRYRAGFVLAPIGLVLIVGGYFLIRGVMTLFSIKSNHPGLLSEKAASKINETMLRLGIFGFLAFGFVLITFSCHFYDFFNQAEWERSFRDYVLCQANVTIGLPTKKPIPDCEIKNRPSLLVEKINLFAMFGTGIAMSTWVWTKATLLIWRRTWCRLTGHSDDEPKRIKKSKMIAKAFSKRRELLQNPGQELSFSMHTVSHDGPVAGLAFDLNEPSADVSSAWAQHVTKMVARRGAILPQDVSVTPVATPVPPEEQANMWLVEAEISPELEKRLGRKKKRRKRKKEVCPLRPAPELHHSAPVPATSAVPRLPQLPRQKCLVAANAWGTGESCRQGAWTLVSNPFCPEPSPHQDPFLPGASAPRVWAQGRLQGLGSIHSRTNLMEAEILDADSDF
Sequence of human Smoothened receptor (Q99835 28-787): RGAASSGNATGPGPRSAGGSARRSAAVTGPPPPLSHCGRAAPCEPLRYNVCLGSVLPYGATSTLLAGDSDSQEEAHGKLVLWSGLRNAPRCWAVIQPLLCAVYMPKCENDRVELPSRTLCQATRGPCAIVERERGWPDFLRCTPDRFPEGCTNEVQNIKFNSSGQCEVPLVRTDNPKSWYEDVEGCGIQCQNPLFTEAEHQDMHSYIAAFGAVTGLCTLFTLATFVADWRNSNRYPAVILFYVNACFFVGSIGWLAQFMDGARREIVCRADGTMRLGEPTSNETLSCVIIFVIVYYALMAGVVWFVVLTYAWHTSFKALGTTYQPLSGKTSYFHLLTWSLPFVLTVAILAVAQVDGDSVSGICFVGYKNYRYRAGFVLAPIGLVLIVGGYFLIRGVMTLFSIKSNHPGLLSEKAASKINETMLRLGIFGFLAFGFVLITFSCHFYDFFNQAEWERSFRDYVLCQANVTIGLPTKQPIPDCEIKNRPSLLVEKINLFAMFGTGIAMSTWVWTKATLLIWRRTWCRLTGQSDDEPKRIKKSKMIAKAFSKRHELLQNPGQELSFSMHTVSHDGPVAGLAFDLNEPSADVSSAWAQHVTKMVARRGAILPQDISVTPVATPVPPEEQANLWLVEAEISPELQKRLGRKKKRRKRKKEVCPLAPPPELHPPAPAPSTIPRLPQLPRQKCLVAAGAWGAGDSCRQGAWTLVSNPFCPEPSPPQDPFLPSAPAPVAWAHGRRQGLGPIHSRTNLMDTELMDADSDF

| SMILES | IC50 (Gli-luciferase activity; [3]) | IC50 (Gli-luciferase activity; [4]) | IC50 [1] | IC50 [2] |
| --- | --- | --- | --- | --- |
| Cc1cc(Cc2nnc(N3CCN(c4ccc5ccccc5c4)CC3)c3ccccc23)ccn1 [Example 33] | 1000 to 10000 nM | 1000 to 10000 nM | 100 to 1000 nM |  |
| FC(F)(F)c1cnc(N2CCCN(c3nnc(Cc4ccccc4)c4ccccc34)CC2)c(Cl)c1 [Example 17] | 1000 to 10000 nM | < 100 nM | 100 to 1000 nM |  |
| c1ccc(Cc2nnc(N3CCCN(c4ncccn4)CC3)c3ccccc23)cc1 [Example 40] | 100 to 1000 nM | < 100 nM | 100 to 1000 nM |  |
| c1ccc2c(N3CCN(c4cnccn4)CC3)nnc(Cc3ccncc3)c2c1 [Example 20] |  | 1000 to 10000 nM | 1000 to 10000 nM |  |
| Cc1ccc(N2CCN(c3nnc(Cc4ccccc4)c4ccccc34)CC2C)cc1 (centres unmarked) [Example 27] | 1000 to 10000 nM | 100 to 1000 nM | 1000 to 10000 nM |  |
| N#Cc1ccc(N2CCCN(c3nnc(Cc4ccccc4)c4ccccc34)CC2)nc1 [Example 19] | 100 to 1000 nM | < 100 nM | < 100 nM |  |
| c1ccc(Cc2nnc(N3CCN(c4ccc5ccccc5n4)CC3)c3ccccc23)cc1 [Example 18] | 100 to 1000 nM | < 100 nM | < 100 nM |  |
| c1ccc2cc(N3CCN(c4nnc(Cc5ccncc5)c5ccccc45)CC3)ccc2c1 [Example 32] | 1000 to 10000 nM | 100 to 1000 nM | 100 to 1000 nM |  |
| Cc1ccnc(N2CCCN(c3nnc(Cc4ccccc4)c4ccccc34)CC2)n1 [Example 41] | 100 to 1000 nM | < 100 nM | 100 to 1000 nM |  |
| c1ccc(Cc2nnc(N3CCN(c4ccccn4)CC3)c3ccccc23)cc1 [Example 24] | 1000 to 10000 nM | 100 to 1000 nM | 100 to 1000 nM |  |

Other lines, results leading:

| IC50 (Gli-luciferase activity; [3]) | IC50 (Gli-luciferase activity; [4]) | IC50 [1] | IC50 [2] | SMILES |
| --- | --- | --- | --- | --- |
| 100 to 1000 nM | < 100 nM |  | < 100 nM | COC(=O)c1cnc(N2CCN(c3nnc(Cc4ccccc4)c4ccccc34)C[C@H]2C)cn1 [Example 145, (R)-4-(4-Benzyl-phthalazin-1-yl)-2-methyl-3,4,5,6-tetrahydro-2H-[1,2′]bipyrazinyl-5′-carboxylic acid methyl ester] |
| 1000 to 10000 nM | 100 to 1000 nM | 100 to 1000 nM |  | O=C(NCc1ccc(N2CCN(c3nnc(Cc4ccccc4)c4ccccc34)CC2)cc1)OCc1ccccc1 [Example 77] |
| 1000 to 10000 nM | 100 to 1000 nM | 100 to 1000 nM |  | OCc1ccc(N2CCN(c3nnc(Cc4ccccc4)c4ccccc34)CC2)nc1 [Example 158] |
| 100 to 1000 nM | 100 to 1000 nM | 100 to 1000 nM |  | COCCNC(=O)c1ccc(N2CCN(c3nnc(Cc4ccccc4)c4ccccc34)CC2)nc1 [Example 54f] |
| 100 to 1000 nM | < 100 nM | < 100 nM |  | CCCNC(=O)c1ccc(N2CCN(c3nnc(Cc4ccccc4)c4ccccc34)CC2)nc1 [Example 54n] |
| 100 to 1000 nM | 100 to 1000 nM | < 100 nM |  | CS(=O)(=O)NCc1ccc(N2CCN(c3nnc(Cc4ccccc4)c4ccccc34)CC2)nc1 [Example 205] |
| 100 to 1000 nM | < 100 nM | < 100 nM |  | O=C(c1ccc(N2CCN(c3nnc(Cc4ccccc4)c4ccccc34)CC2)nc1)N1CCSC1 [Example 54p] |
| 100 to 1000 nM | 100 to 1000 nM | 100 to 1000 nM |  | CC(=O)Nc1cnc(N2CCN(c3nnc(Cc4ccccc4)c4ccccc34)CC2)nc1 [Example 237, N-{2-[4-(4-Benzyl-phthalazin-1-yl)-piperazin-1-yl]-pyrimidin-5-yl}-acetamide] |
| 100 to 1000 nM | < 100 nM | < 100 nM |  | CCCc1cnc(N2CCN(c3nnc(Cc4ccccc4)c4ccccc34)CC2)nc1 [Example 42] |
| < 100 nM | < 100 nM | < 100 nM |  | Cc1ccnc(N2CCN(c3nnc(Cc4ccccc4)c4ccccc34)CC2)n1 [Example 47] |
| < 100 nM | < 100 nM | < 100 nM |  | CCc1cnc(N2CCN(c3nnc(Cc4ccccc4)c4ccccc34)CC2)nc1 [Example 43] |
| 100 to 1000 nM | < 100 nM | 100 to 1000 nM |  | CNC(=O)NCc1ccc(N2CCN(c3nnc(Cc4ccccc4)c4ccccc34)CC2)nc1 [Example 206] |
| 1000 to 10000 nM | 100 to 1000 nM | 100 to 1000 nM |  | CC(=O)NCc1ccc(N2CCN(c3nnc(Cc4ccccc4)c4ccccc34)CC2)cc1 [Example 75] |
| 100 to 1000 nM | < 100 nM | < 100 nM |  | CCCc1cnc(N2CCCN(c3nnc(Cc4ccccc4)c4ccccc34)CC2)nc1 [Example 44] |
